Experiment [1] deals with KRAS G12C Lite (SEQ ID NO:3) (Homo sapiens, UniProt P01116, C118S/C51S/C80S/G12C/S136P/S39C). The experiment is described as follows: Intact mass analysis (LC-MS) of covalent modification, KRAS G12C Lite. It counts as binding. Further details: key to KRAS Lite Modification: a: KRAS Lite modified. The following applies: intact mass spectrometry; covalent modification of KRAS G12C Lite. In outline:
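Protein (2 μM) reacted with compound (100 μM) for 24 h at 25° C in 20 mM HEPES pH 8, 150 mM NaCl, 2% DMSO, 2% glycerol, then analysed by intact-mass LC-MS (C4 column, positive-ion TOF). Up to 8 cysteine adducts allowed on deconvolution; adducts <2% of base peak ignored. % modification = adduct intensity over total protein plus adduct intensities.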

The next experiment has as its target KRAS G12C Lite (Homo sapiens, UniProt P01116, C118S/C51S/C80S/G12C/S136P/S39C). The experiment is described as follows: Differential scanning fluorimetry, KRAS G12C Lite. The class given is binding. The following applies: 37° C. 5 hours incubation. Further details: key: Y: protein destabilized; N: protein not destabilized. The protocol: KRas proteins at 0.05 mg/ml in buffer Hepes, 147 mM NaCl, 2% glycerol, 5 mM MgCl2, 1 mM EDTA, 10 μM GDP, pH 8.0 were incubated in the presence desired concentration of compounds (5% DMSO final concentration) at 37° C. for 5 hours. After incubation, Sypro Oange to a final concentration of 5× was added to each sample. 20 μl aliquots of samples were transferred PCR tubes, sealed with caps, and run in a BioRad CFX96 RTPCR thermocycler. In the instrument, the samples were heated at a rate of 1° C./min from 25 to 90 degrees. Fluorescence readings were taken every 1 degree. The data generated was exported and analyzed using GraphPad-Prism software. The denaturation curves were fit using a Boltzmann sigmoidal equation to calculate melting temperatures (Tm).

In a further experiment the target is KRAS G12C (Homo sapiens, UniProt P01116, G12C). Description: SOS1-catalyzed KRAS coupled nucleotide exchange assay (Alpha technology). The class given is biochemical. The settings on record: inhibition of SOS1 mediated KRAS nucleotide exchange. Further details: His; key: A: KRAS G12C bound and modulated. The essentials:
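Alpha readout of c-RAF RBD binding to GTP-bound KRAS, normalized to DMSO. Method I: 20 nM GDP-KRAS G12C/C118A with compound 5 min, then 1.25 mM GTP + 500 nM SOS-1 30 min, pH 7.4 HEPES/MgCl2 buffer, 50 nM RBD. Method II: 50 nM GDP-KRAS G12C with compound 2 h, 1 mM GTP + 500 nM SOS-1 30 min, 2.5 nM GST-RBD; RT throughout.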

Here are results for two compounds from patent publication US20240092756A1, “METHODS AND COMPOSITION FOR KRAS MODIFICATIONS” (2692372 ONTARIO, INC., priority 2020, published 2024).

Regarding `Cc1ccnc(C(C)C)c1-n1c(=O)nc(NC2CN(S(=O)(=O)c3c(F)c(F)c(F)c(F)c3C(F)(F)F)C2)c2cc(F)c(Cl)nc21` [Compound 14A, 7-chloro-6-fluoro-1-(2-isopropyl-4-methylpyridin-3-yl)-4-((1-((2,3,4,5-tetrafluoro-6-(trifluoromethyl)phenyl)sulfonyl)azetidin-3-yl)amino)pyrido[2,3-d]pyrimidin-2(1H)-one], the “KRAS Lite Modification” value in experiment [1] is “a”. For the same compound, the “KRAS G12C Lite DSF ΔTm” value at KRAS G12C Lite is listed as “Y”. Moreover, the “KRAS-SOS1 Nucleotide Exchange” value at KRAS G12C is “A”.

In the case of `Cc1ccnc(C(C)C)c1-n1c(=O)nc(NC2CN(S(=O)(=O)c3c(F)c(F)c(F)c(F)c3C(F)(F)F)C2)c2cc(F)c(-c3c(O)cccc3F)nc21` [Compound 15A, 6-fluoro-7-(2-fluoro-6-hydroxyphenyl)-1-(2-isopropyl-4-methylpyridin-3-yl)-4-((1-((2,3,4,5-tetrafluoro-6-(trifluoromethyl)phenyl)sulfonyl)azetidin-3-yl)amino)pyrido[2,3-d]pyrimidin-2(1H)-one], the “KRAS Lite Modification” value in experiment [1] was “a”. Besides, the “KRAS G12C Lite DSF ΔTm” value at KRAS G12C Lite is listed as “Y”. At KRAS G12C, the “KRAS-SOS1 Nucleotide Exchange” value is reported as “A”.
